Results on 112 compounds are retold here after the OPERA property sets (Mansouri et al. 2018).

Molecules are shown by their SMILES.

Usually logP stands for a log measure of how a compound divides between an organic and an aqueous phase. High values mean higher lipophilicity, low ones lower lipophilicity. `Cc1cc(Br)cc(C)c1N=C1NCCN1` gave a logP of 2.8.
The same measure for `O=C(O)/C=C/Oc1ccc(Cl)cc1Cl`: 3.46; for `c1ccc(-c2cn[nH]n2)cc1`: 1.91.
`C=C1C(=O)OC2C=C(C)C(OC(C)=O)CC(O)C(C)=CC(OC(=O)C(C)=CC)C12` (configuration not stated) displayed a logP of 1.16.
`CC(C)c1cccc(S(N)(=O)=O)c1` yielded a logP of 1.81.
Consider `Cc1ccc(S(=O)(=O)NC(=O)NN2CCCC2)cc1`, for which the logP is 0.65.
`CC(=O)OCC1SC(n2ccnc2[N+](=O)[O-])C(OC(C)=O)C(OC(C)=O)C1OC(C)=O` (configuration not stated) yielded a logP of 0.63.
In the case of `CC1OC(OC2C(O)CC(OC3C(O)CC(OC4CCC5(C)C(CCC6C5CC(O)C5(C)C(C7COC(=O)C7)CCC65O)C4)OC3C)OC2C)CC(O)C1O` (configuration not stated), the logP worked out at 1.36.
The same measure for `Cc1nc2n(c(=O)c1C)CCCC2`: 0.6; for `CC1(C)C(C=C2CCSC2=O)C1C(=O)OCc1ccccc1` (configuration not stated): 4.02.
Under `CCN1CC(C(O)C(CC2CCCCC2)NC(=O)C(Cc2c[nH]cn2)NC(=O)C(CC(=O)N2CCOCC2)Cc2ccccc2)OC1=O` (configuration not stated) stands 2.2.
Under `CC1OC(OC2CCC3(C)C(CCC4C3CC(O)C3(C)C(C5=CC(=O)OC5)CCC43O)C2)CC(O)C1O` (configuration not stated) stands 1.09.
`CCCCCc1cc(OCCCCN)c2c(c1)OC(C)(C)C1CC=C(C)CC21` (configuration not stated) displayed a logP of 8.38.
Under `COc1ncnc(NS(=O)(=O)c2ccc(N)cc2)c1OC(C)C` stands 1.03; under `CC(C)C(=O)OCC1OC(n2cc(I)c(=O)[nH]c2=O)C1O` (configuration not stated), 0.83; under `CC1(C)CC(=O)CC(C)(C)N1O`, 0.12.
The same measure for `CC1=C(C(=O)Nc2ccccc2-c2ccccc2)SCCO1`: 2.54; for `CN(C)c1nc(N(C)C)nc(N(C)O)n1`: 1.61.
The same measure for `CCN1CC(C(O)C(CC2CCCCC2)NC(=O)C(Cc2cnc[nH]2)NC(=O)C(Cc2ccc(OC)cc2)NC(=O)N(C)CCOCOCCOC)OC1=O` (configuration not stated): 2.03; for `Cc1cccc(C2C(=O)c3ccccc3C2=O)c1`: 3.46.
Compound `Cc1c2ccccc2c(C)c2ccccc12` displayed a logP of 5.69.
Under `CNC(=C[N+](=O)[O-])NCCSCc1ccc(CN(C)C)o1` stands 0.27; under `C#CC1(O)CCC2C3CCc4cc(O)ccc4C3C(CC)CC21C` (configuration not stated), 4.28.
Under `O=C(CBr)c1ccccc1` stands 2.19.
`CCCCCCCc1ccncc1` showed a logP of 5.
The same measure for `CC(C)(C)c1cc(C2C(=O)c3ccccc3C2=O)cc(C(C)(C)C)c1`: 6.86; for `O=C1CC(c2ccccc2)c2ccccc2N1` (configuration not stated): 2.79; for `Nc1nc2c(ncn2COC(CO)CO)c(=O)[nH]1`: -1.66.
Under `O=c1c2ccccc2nc2n1CCC2` stands 1.07.
The compound `CCN1CC(C(O)C(CC2CCCCC2)NC(=O)C(Cc2cnc[nH]2)NC(=O)C(CC(=O)N(C)CCOCOCCOC)Cc2ccccc2)OC1=O` (configuration not stated) yielded a logP of 2.21.
Compound `Cc1cnc2n(c1=O)CCCC2C` (configuration not stated) showed a logP of 0.69.
For `O=c1ccn([C@H]2CC[C@@H](CO)O2)c(=O)[nH]1`, the logP was -1.
Consider `COc1cc(OC)c(Cl)c(Cc2cnc(N)nc2N)c1Cl`, for which the logP was found to be 2.55.
Turning to `COc1ncnc2c1ncn2C1OC(CO)C(OC(=O)Cc2ccccc2)C1OC(=O)Cc1ccccc1` (configuration not stated), the log partition coefficient (logP) is 3.48.
For the compound `CCCN(CCC)CC(=O)NCc1ccccc1`, the logP is 3.11.
Under `[O-][n+]1ccc(NO)c2ccccc21` stands 0.
The same measure for `Cn1nnnc1SCC1=C(C(=O)OCOC(=O)C(C)(C)C)N2C(=O)C(NC(=O)C(O)c3ccccc3)C2SC1` (configuration not stated): 0.85.
For `CC(=O)Nc1nc(N2CCN(C)CC2)c(Cl)nc1[N+](=O)[O-]`, the logP was 0.5.
The same measure for `O=C(O)CN1C(=O)C=CC1=O`: -0.14.
The same measure for `Cc1cn([C@H]2CC[C@@H](CO)O2)c(=O)[nH]c1=O`: -0.6; for `c1cc2cccc3c4cccc5cccc(c(c1)c23)c54`: 6.25; for `O=C(O)c1ccc(O)c(Cl)c1`: 2.41.
On to `CCNC(=O)NS(=O)(=O)c1ccc(C)cc1`, for which the logP was 1.14.
The same measure for `CCCc1ccc(CC(=O)O)cc1`: 3; for `O=[N+]([O-])c1ccc(Cc2ccncc2)cc1`: 2.88.
The compound `Cc1cccc(C)c1NC(=O)CCCN` registered a logP of 0.71.
The same measure for `CCN(CC)CCNC(=O)c1ccc(N)cc1OC`: 1.4; for `CC(C)(C)c1cccc(O)c1`: 3.3; for `COc1ccc(CCNCC(O)COc2ccc(COCc3ncc[nH]3)cc2)cc1OC` (configuration not stated): 1.29.
The same measure for `CC(=O)Oc1cccc(OC(C)=O)c1C(N)=O`: -0.62; for `OCc1cc(Br)ccc1O`: 1.72.
The same measure for `COC1CC(OC2CCC3(C=O)C4CCC5(C)C(C6=CC(=O)OC6)CCC5(O)C4CCC3(O)C2)OC(C)C1O` (configuration not stated): 0.64; for `COC(=O)c1nc(NCC(O)CO)cnc1[N+](=O)[O-]` (configuration not stated): -0.1.
Compound `Nc1nc(-c2ccccn2)cc2ccccc12` registered a logP of 2.74.
Compound `Cc1cccc(C)c1NC(=O)CCCC(C)N` (configuration not stated) had a logP of 1.41.
Under `O=C1C=CC(=O)C(c2ccccc2)=C1` stands 1.95.
`O=C(NC1CCCCC1)NS(=O)(=O)c1ccc(Cl)cc1` registered a log partition coefficient (logP) of 3.38.
Under `CCCCCCC(C)(C)c1ccc(C2CCCC(O)C2)c(O)c1` (configuration not stated) stands 6.68.
The same measure for `OC1CCCc2ccccc21` (configuration not stated): 1.98; for `CC1CC(C)(C)CC(c2ccccc2)(N2CCCCC2)C1` (configuration not stated): 6.35.
On to `COc1cc(C(=O)OC2N=C(c3ccccc3)c3cc(Cl)ccc3NC2=O)cc(OC)c1OC` (configuration not stated), for which the logP turned out to be 3.75.
The same measure for `CCN1CC(C(O)C(CC2CCCCC2)NC(=O)C(Cc2c[nH]cn2)NC(=O)C(Cc2ccc(OC)cc2)NC(=O)N2CC(OCOCCOC)C(OCOCCOC)C2)OC1=O` (configuration not stated): 1.67.
Under `CN(C)c1nc(N(C)C)nc(N(C)CCO)n1` stands 1.96; under `C=C1C(=O)OC2C1C(OC(=O)C(C)=CC)CC1(CO1)C1C(OC(C)=O)C=C(C)C21O` (configuration not stated), 0.76.
Under `NC(=O)c1ccccc1OCc1ccc([N+](=O)[O-])cc1` stands 1.73.
In the case of `CCCCCCCCOC(=O)c1cc(=O)[nH]c(=O)[nH]1`, the log partition coefficient (logP) was determined as 2.6.
In the case of `O=C(O)c1cc2ccccc2cc1O`, the logP came out at 3.05.
In the case of `Cc1cc(Br)cc(C(N)=O)c1O`, the logP came out at 2.76.
In turn, `COc1ccc(CCOC(=O)C(N)Cc2ccc(O)c(O)c2)cc1` (configuration not stated) returned a logP of 1.69.
Under `Cc1ncc(NS(=O)(=O)c2ccc(N)cc2)c(C)n1` stands 0.59; under `CCN1CC(C(O)C(CC2CCCCC2)NC(=O)C(Cc2cscn2)NC(=O)C(CC(=O)N2CCOCC2)c2ccccc2)OC1=O` (configuration not stated), 2.83; under `COc1cc(OC)cc(C2C(=O)c3ccccc3C2=O)c1`, 2.86.
As for `CCNC(=O)c1cc(Br)cc(C)c1O`, the lipophilicity (logP) worked out at 3.61.
In turn, `C=C1CCC2C(C1)c1c(OCc3ccc(-c4ccccc4)cc3)cc(CCCCC)cc1OC2(C)C` (configuration not stated) returned a logP of 11.3.
`Cc1cnc([N+](=O)[O-])n1CCO` registered a logP of 0.18.
The same measure for `COc1cc2nc(N3CCN(C(=O)C(C)OC)CC3)nc(N)c2cc1OC` (configuration not stated): 1.14.
In turn, `CCCCCCc1ccc(CC(=O)O)cc1` returned a logP of 4.25.
The same measure for `CCCCCCCCc1ccc(C2C(=O)c3ccccc3C2=O)cc1`: 6.93.
Under `COc1ccc(Cc2cnc(N)nc2N)cc1C(C)C` stands 2.79.
The same measure for `N#CSO`: 0.32; for `CCC(C(=O)OCc1ccc(C)cc1)C(COC(=O)c1ccccc1)Cc1cncn1C` (configuration not stated): 4.85.
In the case of `Nc1c([N+](=O)[O-])ccc2ncccc12`, the logP amounted to 1.61.
Under `CC(N)CC1CCCCC1` (configuration not stated) stands 2.96; under `CCOCCNCC(O)COc1ccc(-c2ncc(-c3cccs3)[nH]2)cc1` (configuration not stated), 2.25.
The same measure for `O=C1C2C3C=CC(C4C=CC43)C2C(=O)N1CCCCN1CCN(c2ncccn2)CC1` (configuration not stated): 1.79.
The same measure for `c1ccc2c(c1)Cc1c-2ccc2ccccc12`: 5.4; for `O=C(O)c1ccc(Cl)cc1Nc1ccc(Cl)cc1`: 4.97; for `O=c1[nH]c(-c2ccccc2)nc2nn[nH]c12`: 1.27.
In turn, `CNC(=O)c1cc(Br)cc(C)c1O` showed a lipophilicity (logP) of 3.51.
`CCOC(=O)C(C(=O)OC(C)C)=C1SCCS1` registered a logP of 2.9.
The compound `CC(C)C(Nc1ccccc1)C(=O)OCc1ccccc1` (configuration not stated) gave a logP of 4.41.
`CC(C(=O)O)c1ccc(N2Cc3ccccc3C2=O)cc1` (configuration not stated) came in with a logP of 2.77.
Under `CCCCCc1cc(OC)c2c(c1)OC(C)(C)C1CC=C(C)CC21` (configuration not stated) stands 8.06; under `CCCn1c(=O)n(C)c(=O)c2nc[nH]c21`, 1.02.
Under `COc1c(OC)c(OC(C)=O)c2cc(NC(C)=O)ccc2c1OC(C)=O` stands 2.
The compound `COc1ccc(CC(C)N)cc1OC` (configuration not stated) registered a logP of 1.2.
The same measure for `CC1OC(OC2C(O)CC(OC3CCC4(C)C(CCC5C4CCC4(C)C(C6=CC(=O)OC6)CCC54O)C3)OC2C)CC(O)C1O` (configuration not stated): 2.15; for `CCCCCCCCCCCCCCCC(=O)O`: 7.17.
Under `Brc1cc2ccccc2nn1` stands 1.72; under `OC(Cn1ccnc1)(c1ccc(F)cc1)c1ccc(-c2ccccc2)cc1` (configuration not stated), 4.23; under `C#C[C@]1(O)CC[C@H]2[C@@H]3CCc4cc(O)ccc4[C@H]3[C@@H](OC)C[C@@]21C`, 3.01.
Take `CCC(C)CC`: the logP was found to be 3.6.
Consider `COc1ccccc1N1CCN(CCCNc2cc(=O)n(C)c(=O)n2C)CC1`, for which the logP came to 1.6.
Under `NNc1nncc2ccccc12` stands 1; under `CCCCCCCCCC[N+](C)(C)C.[I-]`, -0.16; under `CC(=Cc1ccccc1)C(=O)O`, 2.6.
Under `CNC(=O)OC1OC(=O)C2C3C=CC(C3)C12` (configuration not stated) stands 0.63.
Compound `O=C(CN1CCCCC1)NCc1ccccc1` yielded a logP of 2.27.
Under `CCOP(=O)(NC)ON=C(C#N)c1ccc(Cl)cc1` (configuration not stated) stands 2.5; under `COC(=O)C1=C(C)NC(C)=C(C(=O)OCCN(C)Cc2ccccc2)C1c1cccc([N+](=O)[O-])c1` (configuration not stated), 3.82.
`CNC1CCc2ccccc2C1` (configuration not stated) returned a logP of 2.38.
Compound `Cc1ncsc1CCCl` yielded a logP of 2.12.
